Results published in patent publication US20250242340A1, “SABRE CATALYSTS CONTAINING FLUORINATED CARBON CHAINS FOR DELIVERY OF METAL-FREE MRI CONTRAST AGENTS” (The United States of America, as represented by the …, priority 2022, published 2025).
Read-outs that look alike come from different tables or passages of the source.

Legend:
[1] = format: physicochemical; conditions: 23 mM sodium [1-13C]pyruvate, 7.4 mM catalyst of Example 4, 46 mM DMSO, 0.2 mL NFBME + 0.2 mL MeOD, 90 scc/m, 110 PSI, 0.4 μT, 0 °C
[2] = Precipitation of HP pyruvate with ethyl acetate and reconstitution in D2O (Example 9); format: physicochemical; conditions: after EtOAc precipitation and reconstitution in water (D2O); 7.5 mM fluorinated catalyst, 50 mM DMSO, 20-30 mM pyruvate, 1.8 T
Method: Precipitation and redissolution of HP [1-^13C]pyruvate, which takes place in the same NMR tube where hyperpolarization, was performed (Schmidt et al., ACS Sensors, 7(11), 3430-3439 (2022)). The SABRE samples were prepared in CD3OD, using between 20 and 30 mM sodium [1-^13C]pyruvate, 7.5 mM fluorinated SABRE catalyst, and 50 mM dimethyl sulfoxide (DMSO), as described in Examples 6 and 7. 100 μL of this solution was transferred into 5 mm NMR tube and exposed to the SABRE-SHEATH hyperpolarization conditions with the same set-up and optimum conditions described in Examples 6 and 7. The solution was located inside a 3-layer mu-metal of 3″ I.D. and 9″ depth to shield external magnetic fields, combined with a custom-made solenoid to generate a static magnetic field B0 of 0.4 μT. The NMR tubes were pressurized (110 psi, i.e., approximately 8 bar total pressure) with p-H2 bubbling through the solution at a flow of 90 scc/m to activate the catalyst and to ^13C-hyperpolarize the sodium [1-^13C]pyruvate solution. Activation of the catalyst took place for 15 min at ambient temperature and magnetic field. For polarization build-up, the sample was placed in the static magnetic field (typically about 0.4 μT) and a water bath to regulate the reaction temperature at 0° C. After polarization, the NMR tube was rapidly transferred inside the NMR spectrometer at 1.8 T and kept at room temperature. […]

[3] = Re-use of the fluorous catalyst mixture for pyruvate hyperpolarization (Example 26); format: physicochemical; conditions: re-used catalyst mixture from 4 days earlier, fresh 23 mM pyruvate and 47 mM DMSO in 0.2 mL CD3OD
[4] = format: physicochemical; conditions: 20 mM sodium [1-13C]pyruvate, 7.6 mM catalyst shown in Scheme 4, 50 mM DMSO, CD3OD, 0.4 μT, 5 °C, 110 psi, 90 scc/m, 1.8 T
Method: (§1) The SABRE samples were prepared in CD3OD, using 20 mM sodium [1-^13C]pyruvate, 7.6 mM perfluorinated SABRE catalyst shown in Scheme 4, and 50 mM dimethyl sulfoxide (DMSO), as described in Examples 6 and 7. The SABRE samples were exposed to the SABRE-SHEATH hyperpolarization conditions with the same set-up and optimum conditions described in Examples 6 and 7. The NMR tubes were pressurized (110 psi, i.e., approximately 8 bar total pressure) with p-H2 bubbling through the solution at a flow of 90 scc/m to activate the catalyst and to ^13C-hyperpolarize the sodium [1-^13C]pyruvate solution. Activation of the catalyst took place for about 15 minutes at ambient temperature and magnetic field. For polarization build-up, the sample was placed in the magnetic field (typically about 0.4 μT) and a water bath at 5° C. to regulate the reaction temperature. The spectrum was acquired immediately following manual sample transfer to a 1.8 T benchtop NMR after 5 seconds, and the results are set forth in the top spectrum of FIG. 17.

[5] = Isolation of hyperpolarized pyruvate by D2O precipitation of the catalyst and filtration (Example 8); format: physicochemical; conditions: 20% v/v D2O added, Oasis Prime HLB filter, 1.8 T NMR, procedure about 1.15 to 1.30 minutes
Method: The parahydrogen flow rate was established at 90 scc/m and pressurized to 8 bars, the mixing field was 0.4 μT, and the temperature was 0° C.
After the hyperpolarization procedure was completed, the sample was rapidly removed from the 0.40 μT field, depressurized, and 20% in volume (125 μL) of D2O was added to the solution to precipitate the perfluorinated SABRE catalyst.

[6] = Relaxation dynamics of hyperpolarized [1-13C]pyruvate in methanol (Example 7); format: physicochemical
From the text: (§2) In addition, the relaxation dynamics of the [1-^13C]pyruvate were also studied.
In addition, relaxation dynamics at earth field and 1.8 T are about the same as a non-fluorinated SABRE catalyst T1=28.9±1.6 s and 66.5±7 s, respectively.

[7] = Relaxation dynamics of hyperpolarized [1-13C]pyruvate in fluorous mixture (Example 25); format: physicochemical; conditions: fluorous mixture NFBME/MeOD
From the text: as §2
In addition, relaxation dynamics at earth field and 1.8 T are about the same as a non-fluorinated SABRE catalyst T1=9.0±1.9 s and 16.0±1.4 s, respectively.

[8] = format: physicochemical
From the text: Parahydrogen was generated using a Gas-Delivery Manifold. Ultra-high-purity hydrogen gas (Airgas) was fed into a ParaHydrogen flow cryostat (Xeus technology LTD) and enriched to about 50% parahydrogen in the presence of a spin-exchange catalyst (Fe2O3) at liquid nitrogen temperature (77K). […] The entire pH2 line was pressurized to 100 psi.
The magnetic shield condition was as follows. […] The shield was degaussed using internal homebuilt coils driven by a Variac when necessary.
MR experiments were performed using a 1 T Magritek Spinsolve benchtop NMR spectrometer.
FIG. 6 depicts, in the top curve, a single-scan HP ^13C spectrum obtained for the hyperpolarized probe. […] Enhancement is ε˜9000 and polarization is about P(^13C)˜1%.
All experiments were performed with the solution containing fluorinated catalyst, co-ligand (phenyl trifluoromethyl sulfoxide) and [1-^13C]Pyruvate in 0.6 mL CD3OD. The ratio and concentration can be further adjusted to attain better enhancement and polarization. […] The experiments were performed at room temperature, ˜100 scc/m p-H2 flow rate and 96 PSI p-H2 overpressure. The parahydrogen used in this example came from a low-cost 50% p-H2 generator. Each experiment, the p-H2 bubbling was applied for ˜1 min, the sample was quickly transferred to the 1 T NMR spectrometer for detection and the sample was then returned to the mu-metal shield to continue p-H2 bubbling for the next experiment.

[9] = Biphasic extraction of hyperpolarized pyruvate into D2O from NFBME/MeOD (Example 26); format: physicochemical; conditions: after addition of 400 μL D2O to NFBME/MeOD sample (emulsion, bound and free pyruvate), catalyst of Example 4, 1.8 T, room temperature
Method: The hyperpolarization procedure of Example 6 was repeated using a mixture of nonafluorobutyl methyl ether (NFBME) and deuterated methanol instead of only deuterated methanol.
After the hyperpolarization procedure was completed, the sample was rapidly removed from the 0.40 μT field and transferred inside the NMR spectrometer at 1.8 T at room temperature. The NMR sample was depressurized and 400 μL of D2O was added to the solution in order to drive the hyperpolarized sodium [1-^13C]pyruvate into the aqueous phase.

[10] = format: physicochemical; conditions: 40 mM sodium [1-13C]pyruvate, 6.6 mM catalyst of Example 16, 50 mM DMSO, CD3OD, 0.4 μT, 5 °C, 110 psi, 90 scc/m, 1.8 T
Method: as §1, with “40” for “20”, “6.6” for “7.6”, “of Example 16,” for “shown in Scheme 4,”, “16.” for “17.”

[11] = Example 5 text: 8 mM fluorinated catalyst (Example 4), 16 mM PTFSO, 30 mM [1-13C]pyruvate, 0.6 mL CD3OD, room temperature, ~100 scc/m, 96 PSI, 50% p-H2, 1 T NMR
[12] = FIG. 6 legend: 30 mM sodium [1-13C]pyruvate, 42 mM PTFSO, 7.8 mM Ir-F-IMes, deuterated methanol, 55 s 50% p-H2 bubbling, BT=−0.7 μT, 1 T NMR

13C signal enhancement ε [1]: ~38600 fold
P13C [1]: ~6.02%
13C signal enhancement ε [2]: ~9000 fold
P13C [2]: ~2.17%
13C signal enhancement ε [3]: ~3090 fold
P13C [3]: ~0.48%
13C signal enhancement ε [4]: ~19000 fold
P13C [4]: ~4.91%
T1 ([6]; catalyst of Example 4, 1.8 T): 66.5 ± 7 s
T1 ([6]; catalyst of Example 4, Earth's field): 28.9 ± 1.6 s
T1 ([6]; catalyst of Example 4, relaxation at 0.4 μT): 16.1 ± 0.9 s
T1 ([7]; 1.8 T): 16.0 ± 1.4 s
T1 ([7]; relaxation at 0.4 μT): 11.3 ± 1.3 s
13C signal enhancement ε [8, 11]: ~9000
polarization P(13C) [8, 11]: ~1%
13C signal enhancement ε [8, 12]: ~1250
polarization P(13C) [8, 12]: ~0.1%
13C signal enhancement ε [9]: ~10800 fold
P13C [9]: ~1.68%
13C signal enhancement ε [10]: ~16900 fold
P13C [10]: ~2.17%
Compound: CC(=O)C(=O)O [[1-^13C]pyruvate, Sodium [1-^13C]-pyruvate]
HP 13C signal after catalyst precipitation and filtration [5]: no HP ^13C signal was observed in any sample
